Experimental data published in paper PMC10468942, “A Fluorescent Probe as a Lead Compound for a Selective α-Synuclein PET Tracer: Development of a Library of 2-Styrylbenzothiazoles and Biological Evaluation of [^18F]PFSB and [^18F]MFSB” (ACS Omega, 2023).
Like-named read-outs stand apart in the source and are kept apart here.

Key:
αSYN fibrils [1] = target: T1, αSYN fibrils (Homo sapiens, UniProt P37840); assay: [^3H]PiB competition binding assay on αSYN fibrils
T1 construct: cloning of the DNA construct encoding full-length αSYN into the pET-22b vector; made in house; host or cells: Escherichia coli BL21
Experimental: Following the cloning of the DNA construct encoding full-length αSYN into the pET-22b vector and its transformation into BL21 cells, the expression of human αSYN from a prokaryotic host was induced overnight in Escherichia coli at 20 °C with 0.5 mM IPTG. The cells were harvested by centrifugation, resuspended in 20 mM Tris-HCl pH 7.6, 25 mM NaCl and 1× complete protease inhibitor (Roche, Basel, Switzerland), and lysed by sonication. […] Anion exchange chromatography (HiTrap Q, GE Healthcare, Chicago, Illinois) was used to trap the produced αSYN, which was eluted with NaCl 0.1 M over 20 column volumes. Fractions containing αSYN were concentrated and further purified through a Superdex 75 SEC column equilibrated with PBS. […] A 4 mg/mL solution of αSYN in 20 mM K3PO4 pH 9.1 was placed in an orbital shaker at 37 °C, 1000 rpm for 5 days to prepare P91s. The assemblies were either sonicated with cycles of 20 s on and 10 s off at 50% amplitude (Q800R3, Qsonica) for a total of 10 min or directly aliquoted in volumes of 10 μL each stored at −80 °C until use. […] The final products were aliquoted, frozen on dry ice, and stored at −80 °C until use.
Concentrations of αSYN and Aβ1-42 fibrils were as described above.
Plates were incubated on a shaker (MaxQ 6000, Thermo Fisher Scientific, Inc., Marietta, OH) at 50 rpm for 2 h at 37 °C, covered by removable sealing tapes (PerkinElmer, Waltham, MA). Vacuum filtration and read-out were performed as previously reported.[17] […] Data points were fitted using nonlinear regression analysis in GraphPad Prism (GraphPad Software, Inc., Version 8.4.0, La Jolla).

αSYN fibrils [2] = target: αSYN fibrils; design: method as in PMID 33819025; conditions: fluorescence titration; cited from earlier work
[3] = system: αSYN pathology in human brain slices (MSA, PD, AD, control); assay: In vitro autoradiography on human brain slices; assay type: binding; conditions: 10 nM tracer, AD sample vs frontal cortex control
Experimental: Post-mortem human brain slices (10 μm thickness) were obtained from the subject cases and were analyzed by the Neurobiobank München (NBM, Munich, Germany), where tissues were collected on the basis of written informed consent according to the guidelines of the ethics committee of the Ludwig Maximilians University of Munich, Germany (# 345-13). The use of brain tissue samples in this study was approved by the ethics committee of the Faculty of Medicine at the University of Tuebingen (Ethics approval number: 813/2018BO2). Table S4 (Supporting Information) summarizes the information of the subjects from which samples were obtained and used in the experiment.
For autoradiography, frozen brain slices were thawed for 1 h before preincubation in bovine serum albumin (BSA) buffer for 25 min at room temperature. To determine total binding (TB), brain slices were incubated with the tracer (10 nM [^18F]PFSB, 10 nM [^18F]MFSB). Incubation of consecutive slices with the corresponding nonradioactive compounds (10 μM PFSB, 10 μM MFSB) was performed to determine nonspecific binding (NSB). The nonradioactive compounds were prepared by dissolving in DMSO to 10 mM, which yielded a DMSO concentration of ≤0.1% in the final solution. Incubation was carried out for 1 hour at room temperature with subsequent washing in cold BSA buffer (3 × 10 min) followed by three dippings in cold deionized water. After drying under an IR lamp, brain slices were exposed to a storage phosphor screen (Molecular Dynamics, Caesarea, Israel) for 18 h, which was then scanned in a phosphor imager (STORM 840, Molecular Dynamics, Sunnyvale, CA).
Quantitative data analysis was performed by drawing four regions of interest (ROIs) in relevant areas of the slice and one ROI next to it for background subtraction (Figures S7 and S8; ImageJ 1.8.0_172, National Institute of Health, Bethesda, MD).[28] Specific binding (SB) is obtained by subtracting NSB from TB. The SB disease/SB control ratio was calculated by dividing by the SB in diseased tissues with the respective SB in control tissues.

[4] = In vivo dynamic PET/MR imaging in healthy wild-type mice; design: species or system C57BL/6J mice
Experimental: The animal experiments were performed in compliance with the European directives on the protection and use of laboratory animals (Council Directive 2010/63/UE) and the German animal welfare act with approval from the local authorities (Regierungspräsidium Tuebingen, R3/19G). Healthy wild-type female C57BL/6J mice (20.3 ± 0.9 g; 9 weeks old) purchased from Charles River Laboratories (Sulzbach, Germany) were maintained in our vivarium on a 12:12 hour light–dark cycle, and were kept at a temperature of 22 °C with 40–60% humidity and free access to a standard diet and tap water.
The mice (n = 3) were anesthetized with 1.5% isoflurane evaporated in 100% oxygen at a flow rate of 0.8 L/min. A body temperature of 37 °C was maintained using a feedback temperature control unit. PET imaging studies were performed on Inveon dedicated microPET system (Inveon D-PET, Siemens, Knoxville, TN). Five seconds after the start of PET acquisition, the mice were injected intravenously with 9.9 ± 0.6 MBq of [^18F]MFSB (Am = 46.2 ± 2.5 GBq/μmol at the time of injection). The 1 h dynamic acquisitions were divided into 39 time frames (12 × 5 s, 6 × 10 s, 6 × 30 s, 5 × 60 s, and 10 × 300 s). A 13-min transmission measurement with a cobalt-57 point source was performed for attenuation correction. Subsequently, an anatomical MR scan with a 7 Tesla MR scanner (ClinScan, Bruker BioSpin MRI GmbH, Ettlingen, Germany) using a rat whole-body volume coil and the Paravision software (v6.0.1, Bruker, Ettlingen, Germany) using a T2-weighted Turbo-RARE MRI sequence.
The PET image was reconstructed via the OSEM3D/SP-MAP reconstruction algorithm and coregistered to the whole-body MRI scan. Volumes of interest (VOIs) were hand-drawn for the relevant organs based on the MR anatomy in PMOD (PMOD Technologies, Faellanden, Switzerland, Version 4.2) and VOIs at different regions in the mouse brain were extracted using the atlas provided by PMOD to calculate the respective time–activity curves (TACs). Standardized uptake values (SUVs) were calculated as a ratio of the detected activity with injected activity and weight (SUV = (TAC (kBq/cc)/inj. activity (kBq)) × weight (g)).

[5] = mice n = 3, i.v., 60 min dynamic PET

Question: What does the source list for `CN1CCN(c2ccc(C=Cc3sc4ccccc4[n+]3C)cc2)CC1` [RB2, 3-Methyl-2-(4-(4-methylpiperazin-1-yl)styryl)benzo[d]thiazol-3-ium Iodide, reference compound]?
Answer: Ki (αSYN fibrils [1]; Ki-RB2, αSYN [^3H]PiB competition): 333 µM; Ki (αSYN fibrils [1]; methylated compounds, Table 2, two values in a cell = single determinations, read-out: Ki): > 0.4 µM; Kd (αSYN fibrils [2]): 4.4 ± 0.5 µM

Question: What does the source list for `[18F]c1ccc2nc(/C=C/c3ccc(N4CCOCC4)cc3)sc2c1` [[^18F]MFSB]?
Answer: AD/frontal cortex SB ratio [3]: remained favorable; SUV, TAC peak value, blood [4, 5]: 6.94 ± 0.71; SUV, TAC peak value, brain [4, 5]: 1.79 ± 0.02; SUV, TAC peak value, kidney [4, 5]: 2.70 ± 0.27; SUV, TAC peak value, liver [4, 5]: 5.00 ± 0.35; SUV, TAC peak value, lung [4, 5]: 4.43 ± 0.33; SUV, TAC peak value, bone ([4]; mice n = 3, i.v., at 60 min): 1.52 ± 0.20; SUV peak in the cerebellum ([4]; mice, PET): up to 1.76; SUV peak in the frontal cortex ([4]; mice, PET): up to 1.58; SUVbrain/SUVblood ([4]; mice, PET): 2.7; Time to peak, bone ([4]; mice, PET TAC): 60 min; Time to peak, brain ([4]; mice, PET TAC): 25 min; Time to peak, kidney ([4]; mice, PET TAC): 110 s; Time to peak, liver ([4]; mice, PET TAC): 90 s; Time to peak, lung ([4]; mice, PET TAC): 15 s; AUC, brain ([4]; mice, PET TAC over 60 min): 98.13 ± 1.30; AUC, kidney ([4]; mice, PET TAC over 60 min): 102.27 ± 1.33; AUC, liver ([4]; mice, PET TAC over 60 min): 188.40 ± 6.15; AUC, lung ([4]; mice, PET TAC over 60 min): 51.22 ± 3.94
